Data as given in patent US6730332B2, “Herbal composition having antiallergic properties and a process for the preparation thereof” (Natural Remedies Pvt. Ltd., priority 2000, dated 2004).

Columns and labels:
[1] = system: mast cells; experiment: mast cell stabilization bioassay; type: cell-based, rats
Source text: The present invention is based on our experience and knowledge about the usage of various herbs along with our in depth studies on traditional literature. For this project a number of plants and plant preparations were selected for detailed studies. The selected plants/extracts were then subjected to the mast cell stabilization bioassay. This bioassay has been reported to be one of the important tools in detecting the substances having antiallergic activity. In this context reference may be made to “Rajashekharan M. et al, J. Drug Dev., 1989, 2(3), 179-182.” Mast cells are basophilic cells in subcutaneous and connective tissue. They are found in large numbers in mesentery of rats and contain numerous membrane bounded granules, which contain strong pharmacologically active mediators such as histamine, SRS-A, Serotonin, bradykinin etc. The role of mast cells in pathogenesis of allergic disease has been well recognized. Mast cells contain receptors for Fc fragment of IgE antibodies. Therefore, IgE antibodies formed on exposure to antigen will combine with the mast cells. On subsequent re-exposure to the same antigen, there occurs an antigen antibody reaction which will initiate mast cell de-granulation in a similar manner as that of de-granulating agents like carbachol or the compound which is the condensation product of N-methyl-p-methoxyphenylamine with formaldehyde. […]

[2] = system: mouse paw edema; experiment: Compound 48/80 induced mouse paw edema; type: in vivo, mice; conditions: 1 mg/kg mouse body weight, P<0.05
Description: Compound 48/80 (Condensation product of N-methyl-p-methoxyphenylamine with formaldehyde) was used to induce mouse paw edema in mice. In this context the reference may be made to Nair A M, Tamhankar C P and Saraf M N (1995) Indian drugs, 32(6), 277-282. The animals were treated with NR-A2 at doses of 175, 225 and 275 mg/kg body weight orally 30 days prior to the test. Standard group received Ketotifen in the dose of 1 mg/kg b.w.

[3] = system: systemic anaphylaxis; experiment: Compound 48/80 induced systemic anaphylaxis in rats; type: in vivo; conditions: 10 mg/kg
Source text: The effect of NR-A2 in compound 48/80 (Condensation product of N-methyl-p-methoxyphenylamine with formaldehyde) induced systemic anaphylaxis was studied in rats. In this context the reference may be made to Y. M. Lee, Kim D. K, (1996) Journal of Ethnopharmacology, 54, 77-84. The animals were divided into five groups, one served as control, one standard and three groups for NR-A2. The standard (Prednisolone), NRA-2 & vehicle were given 30 days prior to intra-peritoneal administration of compound 48/80 (Condensation product of N-methyl-p-methoxyphenylamine with formaldehyde). The dose of Prednisolone was 10 mg/kg while those of NR-A2 were 150, 250, 350 mg/kg b.w. Number of deaths per group within one hour were calculated.

[4] = system: Freund's adjuvant induced paw edema; experiment: Adjuvant induced arthritis; type: in vivo, albino wistar rats; conditions: standard, rats, P<0.05
Description: Freund's adjuvant is a mixture of dead mycobacterium finely ground in liquid paraffin at a concentration of 5 mg/ml. When injected in hind paw it produces an edema characterised as a bi-phasic response, which persists up to 21 days. The injection of Freund's adjuvant in rat hind paw produces conditions similar to rheumatoid arthritis, a delayed hypersensitivity reaction.
NR-A2 was administered to albino wistar rats orally at doses of 150, 250 and 350 mg to body weight for 30 days before and 21 days after injecting Freund's adjuvant. Paw volume was measured using plethesmograph.

[5] = system: active paw anaphylaxis; experiment: Active paw anaphylaxis in mice; type: in vivo; conditions: 14 mg/kg body weight, P<0.05
Description: Active paw anaphylaxis in mice was studied using egg albumin as the antigen adsorbed on aluminum hydroxide. In this context the reference may be made to Ghoosi R. B, Bhide M. B, (1981) Allergy Appl. Immunol., 15, 53. and Nair A. M. et al. (1995) Indian Drugs, 32(6), 277-282. The mice were dosed with NR-A2 at different doses orally in 0.5% CMC for 30 days. Prednisolone was taken as the standard. On 31st day they were sensitized with antigen, and the treatment continued. On 12^Th day after sensitization the animals were re-challenged with egg albumin in saline subcutaneously in plantar region of right hind paw while the contralateral paw received an equal volume of saline. Paw thickness was measured using pocket thickness gauge (Mitutoyo Manufacturing Co. Japan) 15 minutes after the challenge. The difference in paw thickness of right paw compared to the left paw, reflected the edema due to antigen-antibody reaction.

## O=C([O-])c1cc(=O)c2c(OCC(O)COc3cccc4oc(C(=O)[O-])cc(=O)c34)cccc2o1.[Na+].[Na+] [Disodiumchromoglycate]
[1]; mast cell stabilization assay, screening of plant extracts (Table 1)
  EC50 values: 3.68 µg/mL
[1]; selected prototypes (Table 2)
  EC50, mast cell stabilizing activity: 3.66 µg/mL

## CN1CCC(=C2c3ccccc3CC(=O)c3sccc32)CC1 [Ketotifen]
[2]
  inhibition of paw edema: 64.22%

## C[C@]12C=CC(=O)C=C1CC[C@@H]1[C@@H]2[C@@H](O)C[C@@]2(C)[C@H]1CC[C@]2(O)C(=O)CO [Prednisolone]
[3]
  inhibition of compound 48/80 induced anaphylaxis (deaths within one hour): 62.97%
[4]
  inhibition of adjuvant paw edema: 95.63%
[5]
  inhibition of paw edema: 74.03%
